Measurements from paper PMC10671498, “Antiproliferative and Cytotoxic Properties of Propynoyl Betulin Derivatives against Human Ovarian Cancer Cells: In Vitro Studies” (International Journal of Molecular Sciences, 2023).

Experiments:
A549 cells = system: A549 cells; parameters: method as in PMID 30947097; conditions: cited from earlier work
OVCAR-3 cells [1] = test: LDH release assay, OVCAR-3; format: cell-based, human; conditions: OVCAR-3, 24 h, all concentrations (3, 10, 30 μM)
Description: (§1) In order to evaluate the cytotoxic effect, the release of LDH into the culture medium using the In Vitro Toxicology Assay Kit, Lactic Dehydrogenase Based (TOX7; Sigma Aldrich) was assessed. SK-OV-3 and OVCAR-3 cells were plated and cultured in 96-well plates (Greiner Bio-One) at the initial density of 5 × 10^3 cells per well in 100 µL of culture medium. The density of the cells was determined in the same manner as in the SRB assay. After 24 h, the media were replaced with the working solutions, which contained appropriate test compounds at concentrations of 3 μM, 10 μM, 30 μM, and control medium (0.2% DMSO). Cells were exposed to the test substances for 24 h. The background control comprised wells without cells with only control medium. To determine the maximal LDH release (high control), half of the control cultures were treated with lysis buffer. Wells with untreated cells were used as the low control of the assay. LDH activity in media was assessed according to the manufacturer’s protocol. The absorbance was measured at wavelengths of 490 nm and 690 nm (background), and the percentage of released enzyme was calculated for cells growing in the presence of compounds according to the formula:Cytotoxicity [%] = [(AT − AL)/(AH − AL)] × 100 where AT is the absorbance of treated wells; AL is low control; and AH is high control (maximal LDH release).
(§2) Cytotoxicity was expressed as a percentage of the released LDH calculated according to the difference between the absorbance of the treated and low control wells divided by the difference between the absorbance of the high control and low control wells.

P388 cells = system: P388 cells; parameters: method as in PMID 30947097; conditions: cited from earlier work
SK-OV-3 cells [2] = test: LDH release assay, SK-OV-3; format: cell-based, human; conditions: SK-OV-3, 24 h, all concentrations (3, 10, 30 μM)
Description: as §1, §2

[3] = system: 18Co normal myofibroblasts; test: SRB cell proliferation assay, 18Co normal myofibroblasts; format: cell-based
Description: Next, 18Co cells (ATCC No. CRL-1459™) were cultured in MEM medium containing HEPES buffer, 10% fetal bovine serum, 100 U/mL penicillin, and 100 μg/mL streptomycin (all from Sigma Aldrich).
(§3) Betulin 1 and its derivatives were dissolved in dimethyl sulfoxide (DMSO; Sigma Aldrich) as a 15 mM stock solution. Working solutions were prepared through the dilution of stock solutions with culture medium. The final DMSO concentration in culture media was adjusted to 0.2%. The effect of tested compounds on the proliferation of SK-OV-3 and OVCAR-3 cells was measured using the In Vitro Toxicology Assay Kit, Sulforhodamine B based (Sigma Aldrich). Cells were seeded in 96-well plates (Greiner Bio-One, Kremsmünster, Austria) at an initial density of 3 × 10^3 cells per well in 200 µL of culture medium. After 24 h of incubation, betulin 1 and its derivatives at a concentration range of 0.1 μM to 30 μM were added to the wells. Control cultures were treated with vehicle alone (0.2% DMSO). The incubation periods for cells with test compounds were 1 day, 3 days, and 5 days. After appropriate incubation periods, culture media were removed, and cells were fixed in 10% trichloroacetic acid solution for 60 min at 4 °C. After fixation, the TCA solution was removed, and the plates were washed three times with deionized water (300 μL/well) and dried. At the next step, cells were stained with 0.4% sulforhodamine B for 30 min. The excess dye was removed by washing three times with 1% (vol/vol) acetic acid. The protein-bound dye was dissolved in 200 μL 10 mM Tris base solution. Absorbance was measured at 570 nm and 690 nm (reference wavelength) using the MRX Revelation plate reader (Dynex Technologies, Chantilly, VA, USA).
(§4) GraphPad Prism 10.0.2 (GraphPad Software Inc., San Diego, CA, USA) software was used for calculations and the statistical analysis of the IC50 values (Table 1). IC50 was determined by using the “nonlinear regression” mode, and the “log(inhibitor) vs. normalised response—Variable slope” equation was chosen in GraphPad Prism software for calculations. The obtained data were normalized to run from 100% down to 0%, and logarithms of concentration were used. Graphs (Figure 2, Figure 3, Figure 4, Figure 5 and Figure 8, and Supplementary Figure S1) were also prepared using this software. In the case of the lack of normal distribution or homogeneity of variances, the remaining results were analyzed using a non-parametric Kruskal–Wallis test with multiple comparisons. Post hoc analysis was performed with the non-parametric equivalent of Tukey’s test. A p value of <0.05 was considered statistically significant. Otherwise, a one-way ANOVA followed by a Tukey’s post hoc test was applied. t-tests was used to perform pairwise comparisons between group means. Analysis was performed using Statistica 13.1 software (StatSoft, Tulsa, OK, USA).

MV-4-11 cells = system: MV-4-11 cells; parameters: method as in PMID 30947097; conditions: cited from earlier work
Hs294T cells = system: Hs294T cells; parameters: method as in PMID 30947097; conditions: cited from earlier work
OVCAR-3 cells [4] = test: SRB cell proliferation assay, OVCAR-3; format: cell-based, human; conditions: for IC50: Homo sapiens
Description: OVCAR-3 cells (ATCC No. HTB-161™) were cultured in RPMI-1640 medium containing HEPES buffer (2.383 g/L), sodium bicarbonate (1.5 g/L), sodium pyruvate (0.11 g/L) supplemented with 20% fetal bovine serum, 10 µg/mL bovine insulin, 100 U/mL penicillin, and 100 μg/mL streptomycin (all from Sigma Aldrich).
as §3, §4

CCRF/CEM cells = system: CCRF/CEM cells; parameters: method as in PMID 30947097; conditions: cited from earlier work
DU145 cells = system: DU145 cells; parameters: method as in PMID 30947097; conditions: cited from earlier work
SK-OV-3 cells [5] = test: SRB cell proliferation assay, SK-OV-3; format: cell-based, human; conditions: for IC50: Homo sapiens
Description: This study used ovarian cancer cell lines, which are part of the panel of cell lines used as part of the NCI-60 Human Cell Lines Screen program, characterized by overexpression of the c-erbB2/neu (HER2) receptor [62, 63]. The human ovarian cancer cell lines (SK-OV-3 and OVCAR-3) were purchased from the American Type Culture Collection (ATCC®, Manassas, Virginia, USA). SK-OV-3 cells (ATCC No. HTB-77™) were cultured in McCoy’s 5A medium containing D-glucose (3 g/L), L-glutamine (0.219 g/L), and sodium bicarbonate (2.2 g/L) supplemented with 10% fetal bovine serum, 10 mM HEPES (pH 7.3–7.5), 100 U/mL penicillin, and 100 μg/mL streptomycin (all from Sigma Aldrich).
as §3, §4

SMILES: C#CC(=O)OC[C@]12CC[C@@H](C(=C)C)C1C1CCC3[C@@]4(C)CC[C@H](OP(=O)(OCC)OCC)C(C)(C)C4CC[C@@]3(C)[C@]1(C)CC2 (stereo partly shown) [Compound 3, 3-O-diethoxyphosphorylbetulin-28-O-propynoylbetulin]
- tumor growth inhibition (A549 cells): Significant tumor growth inhibition
- cytotoxicity (released LDH) (OVCAR-3 cells [1]): strongest cytotoxicity
- tumor growth inhibition (P388 cells): Significant tumor growth inhibition
- cytotoxicity (released LDH) (SK-OV-3 cells [2]): strong cytotoxic effect
- IC50 ([3]; 18Co, 5 days treatment, Neg: negative in the concentration used): Neg
- IC50 ([3]; 72 h): 12400 nM
- tumor growth inhibition (MV-4-11 cells): Significant tumor growth inhibition
- tumor growth inhibition (Hs294T cells): Significant tumor growth inhibition
- IC50 (OVCAR-3 cells [4]; OVCAR-3, 72 h): 900 nM
- IC50 (OVCAR-3 cells [4]; OVCAR-3, 120 h): 490 nM
- concentration at which antiproliferative activity (decrease in the number of cells) was evident (OVCAR-3 cells [4]; OVCAR-3, SRB assay, 0.1–30 µM): 1 µM
- tumor growth inhibition (CCRF/CEM cells): Significant tumor growth inhibition
- tumor growth inhibition (DU145 cells): Significant tumor growth inhibition
- IC50 (SK-OV-3 cells [5]; SK-OV-3, 72 h): 290 nM
- IC50 (SK-OV-3 cells [5]; SK-OV-3, 120 h): 340 nM
- concentration at which antiproliferative activity (decrease in the number of cells) was evident (SK-OV-3 cells [5]; SK-OV-3, SRB assay, 0.1–30 µM): 1 µM
